B1: CCL19: chemokine (protein, UniProt Q99731 22-98, looked up)
C-C motif chemokine 19: GTNDAEDCCLSVTQKPIPGYIVRNFHYLLIKDGCRVPAVVFTTLRGRQLCAPPDQPWVERIIQRLQRTSAKMKRRSS
B2: S. typhimurium Flagellin: TLR ligand; accession M11332 (protein, UniProt P06179 2-495, looked up)
Flagellin: AQVINTNSLSLLTQNNLNKSQSALGTAIERLSSGLRINSAKDDAAGQAIANRFTANIKGLTQASRNANDGISIAQTTEGALNEINNNLQRVRELAVQSANSTNSQSDLDSIQAEITQRLNEIDRVSGQTQFNGVKVLAQDNTLTIQVGANDGETIDIDLKQINSQTLGLDTLNVQQKYKVSDTAATVTGYADTTIALDNSTFKASATGLGGTDQKIDGDLKFDDTTGKYYAKVTVTGGTGKDGYYEVSVDKTNGEVTLAGGATSPLTGGLPATATEDVKNVQVANADLTEAKAALTAAGVTGTASVVKMSYTDNNGKTIDGGLAVKVGDDYYSATQNKDGSISINTTKYTADDGTSKTALNKLGGADGKTEVVSIGGKTYAASKAEGHNFKAQPDLAEAAATTTENPLQKIDAALAQVDTLRSDLGAVQNRFNSAITNLGNTVNNLTSARSRIEDSDYATEVSNMSRAQILQQAGTSVLAQANQVPQNVLSLLR

Assays:
Neutrophils = experiment: High throughput transmigration assay (Example 9), chemorepulsion; format: cell-based, human
CD4+ = experiment: as above; format: cell-based, human; details: mean of three donors at concentration of highest activity, range 0.00125-1.25 μM
From the text: (§1) An agent's repellent index is the ratio of chemorepulsion (CR) to spontaneous migration (SM) induced by the agent, i.e., [(CR)/(SM)]. […] For example, in calculating a RI for an agent, migratory responses including chemorepulsion (CR) and spontaneous migration (SM) may be measured over several decades or log scales of concentration. If, over any two consecutive measurements at concentrations which differ by at least 10 fold, the ratio of CR to SM at each of the two contiguous measurements is equal to or greater than 1.2, then the agent is considered a validated chemorepellent.
(§2) For primary human T cells, up to 80 ml of blood is drawn from a human donor in sodium heparin Vacutainer tubes (Becton-Dickinson). The blood (between 10 and 15 ml per tube) is then layered onto 30 ml of Lymphocyte Separation Medium (LSM) (Cellgro, Herndon, Va.) in a 50 ml conical centrifuge tube and centrifuged for 20 minutes at 2440×g in a swinging bucket rotor. After removing the majority of the plasma from the top of each tube, the peripheral blood mononucleocyte (PBMC) layer is removed and transferred to fresh 50 ml conical centrifuge tubes. The tubes are then filled to 50 ml with IMDM and centrifuged for 10 minutes at 500×g. All but approximately 5 ml of the supernatant is then removed and the pellet resuspended with 25 ml IMDM and the centrifugation repeated. After removal of the supernatant, the cells are resuspended and combined to one 50 ml tube (per subject) and brought to a total volume of 50 ml. The cells are then counted using a hemacytometer (Reichert). After centrifugation under the same conditions, the supernatant is removed and the cells processed using the appropriate Miltenyi Biotec (Auburn, Calif.) negative selection kit to enrich for the desired cell type according to manufacturers instructions. The resulting purified cells are then diluted to 50 ml with IMDM. After centrifugation at 500×g for 10 minutes, the supernatant is removed and the cells resuspended in 15 ml IMDM supplemented with 0.5% heat inactivated fetal calf serum (FCS) (ATCC, Manassas, Va.). After another centrifugation for 10 minutes at 500×g, the supernatant is again removed and the cells resuspended in 7 ml 0.5% FCS in IMDM (assay medium) and transferred to a 15 ml conical centrifuge tube. The cells are then quantitated using a hemacytometer. When enriching for monocytes, the concentration of cells is adjusted to 2×10^7 per ml by centrifugation and removal of the appropriate volume of assay medium. For all other cell types, the tube cap is replaced with one from a 25 cm^2 tissue culture flask (Corning) and the cells stored overnight in a humidified 37° C. incubator with 5% CO2. The concentration of the cells is adjusted as for monocytes just prior to transmigration assay of Example 9.
(§3) Migration away from a chemical or biological agent (chemorepulsion (CR)) was measured using ChemoTx plates (Neuroprobe). These plates contain a planar polycarbonate or polyester membrane that has been etched and perforated so that cells can move along the etched tracks and fall through perforation holes, enabling the cells to be collected and the number of migrated cells quantified (FIGS. 5-6). Several dilutions (normally 4 in 10-fold increments) are prepared of the agent of interest. For neutrophils, plates with 3 μm pore membranes are used, while for all other primary cell types, 5 μm pore membranes are used. Membranes may, or may not, be coated with polyvinylpyrrolidine (PVP) as a wetting agent.
(§4) For spontaneous migration controls and chemorepulsion (CR) assays, 31 μl of assay medium is pipetted into the lower well of the transmigration apparatus (FIGS. 5-6). For spontaneous migration controls and chemoattraction (CA) assays, 29 μl of assay medium is pipetted into upper chamber of the transmigration apparatus (FIG. 5). For CR, the upper well assay medium contains the agent or candidate chemorepellent. […]

Monocyte = experiment: Trans-well migration assay (Example 1), net migratory response; details: Monocyte; net observed response
Method: Prior to beginning the assay 0.5% Fetal Calf Serum (FCS) in Iscove's Modified Dulbecco's Medium (IMDM) is prepared and stored on ice (Assay Medium). Migratory cells at a concentration of 2×10^7 cells/ml are suspended in Assay Medium. T-cells isolated from donor blood or buffy coats are allowed to rest overnight in Assay Medium at 37° C. in 5% CO2. Neutrophils, monocytes and B cells are utilized as soon as they are purified from donor blood or other source of human origin. Four serial (10×) dilutions of the ligand are then prepared in Assay Medium (normally 10 μg/ml to 0.01 μg/ml).
Plates are removed from the packaging, leaving the membrane behind and intact. The membrane is set aside. Into each well is pipetted 31 μl of solution. For media controls and fugetaxis (chemorepellent) samples, Assay Medium is used. For chemoattraction samples, the appropriate dilution of agent in assay medium is used.
Using a sterile needle, all small bubbles present in each well are popped and the membrane is carefully placed onto the plate, starting at one side and slowly lowering the other edge onto the plate.
Then 29 μl is pipetted into each circle imprinted on the polycarbonate or polyester membrane. For media controls and chemoattraction samples, Assay Medium is used. For fugetaxis (chemorepellent) samples, the appropriate dilution of ligand in assay medium is used.
To each 29 uL aliquot above is added 2 μl of cells (40,000 cells). It is important to ensure that before beginning the cells are well suspended and that they are mixed. This mixing can be accomplished by agitating the tube between each addition.
The plate is then covered with the supplied lid and incubated 1-3 hours in a humidified incubator at 37° C. in 5% CO2. Following the incubation period, the liquid from the top of the plate is removed with a tissue or similar blotting material (e.g. a Kimwipe). The membrane is carefully removed from the top of the plate and discarded. […] Using a multichannel pipettor, each well of the microplate is rinsed with 25 μl Phosphate Buffered Saline (Mediatech #21-040-CV) and transferred to the same wells in the white microplate. Using a multichannel pipettor, 50 μl CellTiter-Glo Luminescent Cell Viability Assay (Promega #G7572) is added to each well and mixed.
The plate is read using the Perkin Elmer Victor^3V plate reader using the Large Aperture Luminescence setting at 8 mm height above the plate with a dwell time of 1 s to quantify the number of migrated cells.
The results reported reflect the net observed migratory response of the cells to the ligand and are not based on the definition of unimodal fugetaxins.

[1] = system: Human primary CD4+ lymphocytes; experiment: Trans-well migration assay (Example 3 method), unimodal fugetaxin test; format: cell-based; design: key: A “+” in the Table indicates a positive hit as a unimodal fugetaxin, as that term is defined herein, for that particular cell type; details: methods of Example 3
[2] = system: Human primary neutrophils; experiment: as above; format: cell-based; design: key to Unimodal fugetaxin hit, Neutrophils: A “+” in the Table indicates a positive hit as a unimodal fugetaxin, as that term is defined herein, for that particular cell type; details: for Unimodal fugetaxin hit, Neutrophils: human neutrophils, methods of Example 3
[3] = system: Human primary CD8+ lymphocytes; experiment: as above; format: cell-based; design: key: A “+” in the Table indicates a positive hit as a unimodal fugetaxin, as that term is defined herein, for that particular cell type; details: methods of Example 3
CD8+ = experiment: High throughput transmigration assay (Example 9), chemorepulsion; format: cell-based, human; details: mean of three donors at concentration of highest activity, range 0.00125-1.25 μM
From the text: as §1, §2, §3, §4

[4] = system: Eo-HL60 (HL-60 clone 15 differentiated to eosinophil-like phenotype); experiment: Trans-well migration assay (Example 1), net migratory response; format: cell-based, human; details: net observed response
T lymphocytes = experiment: High throughput transmigration assay (Example 9), chemorepulsion; format: cell-based, human; details: one donor, triplicate, ± SD
From the text: as §1, §2, §3, §4

B cells = experiment: as above; format: cell-based, human; design: key: ratio of chemorepulsion (CR) to spontaneous migration (SM), CR/SM; details: mean of three donors at concentration of highest activity
From the text: as §1, §2, §3, §4

[5] = Neutrophils, mean of three donors at concentration of highest activity, range 0.00125-1.25 μM

Molecule | Repellent Index (Neutrophils; [5]) | Repellent Index (CD4+) | Migratory Response (Monocyte) | Unimodal fugetaxin hit, CD4+ [1] | Unimodal fugetaxin hit, Neutrophils [2] | Unimodal fugetaxin hit, CD8+ [3] | Repellent Index (CD8+) | other results
Elafin: elastase inhibitor (AQEPVKGPVSTKPGSCPIILIRCAMLNPPNRCLKDTDCPGIKKCCEGSCGMACFVPQ; UniProt P19957 61-117, looked up) | 2.0 | 1.3 |  |  |  |  |  | Repellent Index (Neutrophils; neutrophils, 0.00125 μM, one donor, triplicate, ± SD): 1.33 ± 0.28; Repellent Index (Neutrophils; neutrophils, 0.0125 μM, one donor, triplicate, ± SD): 1.31 ± 0.29; Repellent Index (Neutrophils; neutrophils, 0.125 μM, one donor, triplicate, ± SD): 1.48 ± 0.22; Repellent Index (Neutrophils; neutrophils, 1.25 μM, one donor, triplicate, ± SD): 2.42 ± 0.52
Galectin-3: carbohydrate binding protein (galectin), full-length, purchased; accession P17931/BAA22164/NP_002297 | 1.6 |  | chemorepulsion | + | + | + | 1.3 | chemotactic (chemoattractant) versus fugetactic (chemorepellent) response of neutrophils ([2]; neutrophils, 1 hour, FIGS. 3 and 4, at 10 uM where stated): almost three times as fugetactic (chemorepellent) as chemotactic (chemoattractant)
HSP70: heat shock protein; accession AAA02807 | 8.8 | 4.9 |  | + | + |  | 11.6 | Migratory Response [4]: chemorepulsion; Repellent Index (T lymphocytes; 0.00125 μM): 0.96 ± 0.13; Repellent Index (T lymphocytes; 0.0125 μM): 1.15 ± 0.24; Repellent Index (T lymphocytes; 0.125 μM): 1.65 ± 0.35; Repellent Index (T lymphocytes; 1.25 μM): 14.56 ± 0.61
B1 | 1.5 | 1.7 |  |  |  |  |  | Repellent Index (B cells; range 0.00125-1.25 μM): 2.0
B2 |  |  | chemorepulsion | + | + | + |  | Repellent Index (B cells; range 0.01-10 μg/ml): 1.7; Repellent Index (Neutrophils; Neutrophils, mean of three donors at concentration of highest activity, range 0.01-10 μg/ml): 5.5
